Each structure is given as a SMILES string.

The source of these data is US6664279B2, “Remedies or preventives for liver diseases containing diaminotrifluoromethylpyridine derivatives” (Ishihara Sangyo Kaisha, Ltd., priority 2000, dated 2003).

Experiment [1] deals with acetaminophen (APAP) induced mouse hepatopathy model. The experiment can be described thus: Therapeutic effect on mouse acetaminophen hepatopathy model. The experiment is classed as in vivo. From the text:
Therapeutic Effect on Mouse Acetaminophen Hepatopathy Model
The therapeutic effect of N-(2-ethylsulfonylamino-5-trifluoromethyl-3-pyridyl)cyclohexanecarboxamide sodium salt hydrate (hereinafter referred to as compound 1) on acetaminophen (APAP) induced mouse hepatopathy model was examined.
To Crj: CD-1(ICR) male mice (6 weeks old) (Charles River Japan Inc.), APAP (Lot. No. 107H0332, manufactured by Sigma) dissolved with physiological saline (Lot No. 80909D manufactured by Fuso Pharmaceutical Industries, Ltd.) was intraperitoneally administered in an amount of the active ingredient of 300 mg/kg to induce hepatopathy. 3 Hours after the administration of APAP, the compound 1 dissolved in physiological saline was singly administered subcutaneously on the back in an amount of the active ingredient of 10 mg/kg. To non-treated group mice, physiological saline was similarly administered. 6 Hours after the administration of APAP, the blood was collected, and glutamic-oxaloacetic transaminase (GOT) and glutamic-pyruvic transaminase (GPT) values in the blood serum were measured.
In the present test, mice were kept on a fast from 20 hours before the administration of APAP until the completion of the test.

Experiment [2] concerns rat liver ischemia reperfusion hepatopathy model. The experiment can be described thus: Therapeutic effect on rat liver ischemia reperfusion hepatopathy model. Format: in vivo. The source says: Therapeutic Effect on Rat Liver Ischemia Reperfusion Hepatopathy Model
The therapeutic effect of the compound 1 on rat hepatopathy model induced by partially subjecting the liver to ischemia reperfusion was examined.
(1) The compound 1 was used as a drug formulation. The formulation composition (content per one vial) was as follows.
(2) Crj:SD (IGS) male rats (7 weeks old) (Charles River Japan, Inc.) were anesthetized with ether, and while maintaining them anesthetized with gas-oxygen fluothane, the above drug formulation of the compound 1 diluted with 5% glucose (Lot. 9I78N, manufactured by Otsuka Pharmaceutical Factory, Inc.) so that the dose would be 10 mg/kg/hr as calculated as anhydride of the compound 1, was subcutaneously administered singly. Then, an osmotic pump (alzet osmotic pump 2001D, ALZA CORPORATION, U.S.A.) in which the above drug formulation of the compound 1 diluted with 5% glucose (Lot. 9I78N, manufactured by Otsuka Pharmaceutical Factory, Inc.) so that the dose would be 0.3 mg/kg/hr as calculated as anhydride of the compound 1 was put, was embedded in the dorsal cervical subcutaneous. To non-treated group rats, 5% glucose alone was administered similarly. […] The abdomen was closed, the rats were awaked, and after 90 minutes, the abdomen was opened up again under the above-described anesthesia, the clamp was removed and the rats were subjected to reperfusion. To pseudo-induced group rats, operation except for the ischemia reperfusion treatment was carried out. The abdomen was closed and the rats were awaked, and 6 hours after the reperfusion, aspartate aminotransferase (AST) and alanine aminotransferase (ALT), lactate dehydrogenase (LDH) and total bilirubin values in the blood serum were measured.

The mark [3] stands for this setting: Crj:CD-1(ICR) male mice, APAP 300 mg/kg i.p., 10 mg/kg s.c. single dose 3 hours after APAP, blood 6 hours after APAP, N = 5.
Setting [4] is: Crj:SD (IGS) male rats, 90 minutes ischemia of about 70% of liver, 10 mg/kg/hr s.c. singly then 0.3 mg/kg/hr by osmotic pump, 6 hours after reperfusion, N = 10.

For the compound `CCS(=O)(=O)Nc1ncc(C(F)(F)F)cc1NC(=O)C1CCCCC1.O.[Na]` [compound 1, N-(2-ethylsulfonylamino-5-trifluoromethyl-3-pyridyl)cyclohexanecarboxamide sodium salt hydrate], in experiment [1] (setting [3]), the “GOT in blood serum (mean ± standard deviation)” value worked out at 530 ± 212 IU/L and the “GPT in blood serum (mean ± standard deviation)” value is given as 807 ± 603 IU/L. The “Effect on hepatopathy (increases in biochemical examination values), in words” value in experiment [1] (acetaminophen induced mouse hepatopathy model, 10 mg/kg s.c., versus non-treated group) is recorded as “hepatopathy was alleviated”. In experiment [2] (setting [4]), the “ALT (GPT) in blood serum (mean)” value is on record as 5436 IU/L, the “AST (GOT) in blood serum (mean)” value was found to be 8669 IU/L, the “LDH in blood serum (mean)” value was 29601 IU/L and the “Total bilirubin in blood serum (mean)” value is listed as 0.299 mg/dL. In experiment [2] (rat ischemia reperfusion hepatopathy model, versus non-treated group), the “Effect on hepatopathy (increases in biochemical examination values), in words” value is on record as “alleviated”.
